Measurements reported in patent publication US6790866B2, “Sulfonamide and carboxamide derivatives and drugs containing the same as the active ingredient” (Ono Pharmaceutical Co., Ltd., priority 1996, dated 2004).

Target: T1, prostanoid receptor subtype (mouse EP1) (Mus musculus, UniProt P35375)
T1 construct: expressed in transfected cells; host or cells: CHO cells (membrane fraction)
T1 sequence (P35375 1-405): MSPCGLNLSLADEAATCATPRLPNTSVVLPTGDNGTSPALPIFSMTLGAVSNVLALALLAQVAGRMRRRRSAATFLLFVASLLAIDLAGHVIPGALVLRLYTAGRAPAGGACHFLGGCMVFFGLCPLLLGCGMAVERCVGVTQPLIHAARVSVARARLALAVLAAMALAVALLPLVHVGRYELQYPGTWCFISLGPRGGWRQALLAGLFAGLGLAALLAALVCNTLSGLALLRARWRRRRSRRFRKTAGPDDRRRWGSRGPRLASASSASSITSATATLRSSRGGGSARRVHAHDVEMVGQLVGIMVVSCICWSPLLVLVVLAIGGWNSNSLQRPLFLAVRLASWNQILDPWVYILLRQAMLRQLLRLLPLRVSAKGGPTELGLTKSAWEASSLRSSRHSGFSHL
Assay: Binding assay using expression cell of prostanoid receptor subtype (3H-PGE2 competition, CHO cell membrane fraction)
Details: membrane fraction of CHO cell expressing mouse EP1; 3H-PGE2 2.5 nM; Ki=IC50/(1+([C]/Kd)); read-out: dissociation constant Ki
Method: (i) Binding Assay Using Expression Cell of Prostanoid Receptor Subtype
The preparation of membrane fraction was carried out according to the method of Sugimoto et al (J. Biol. Chem. 267, 6463-6466 (1992)), using expression CHO cell of prostanoid receptor subtype (mouse EP1).
The standard assay mixture contained membrane fraction (0.5 mg/ml), ^3H-PGE2 in a final volume of 200 μl was incubated for 1 hour at room temperature. The reaction was terminated by addition of 3 ml of ice-cold buffer. The mixture was rapidly filtered through a glass filter (GF/B). The radioactivity associated with the filter was measured by liquid scintillation counting.
Kd and Bmax values were determined from Scratchard plots (Ann. N.Y. Acad. Sci. 51, 660 (1949)). Non-specific binding was calculated as the bond in the presence of an excess (2.5 μM) of unlabeled PGE2. In the experiment for competition of specific ^3H-PGE2 was added at a concentration of 2.5 nM and the compound of the present invention was added at a various concentration. The following buffer was used in all reaction.
Buffer: potassium phosphate (pH6.0, 10 mM), EDTA (1 mM), MgCl2 (10 mM), NaCl (0.1M).
The dissociation constant Ki (μM) of each compound was calculated by the following equation.

In order of falling Ki:
1. O=C(O)c1ccc(COc2cc(Cl)ccc2NS(=O)(=O)c2ccccc2)nc1 [22(3), 6-(2-phenylsulfonylamino-5-chlorophenoxymethyl)nicotinic acid]  480 nM
2. O=C(O)c1ccc(COc2cc(Cl)ccc2CNS(=O)(=O)c2ccccc2)cc1 [Example 43, 4-(2-phenylsulfonylaminomethyl-5-chlorophenoxymethyl)benzoic acid]  380 nM
3. O=C(O)c1ccc(COc2ncc(C(F)(F)F)cc2NS(=O)(=O)c2ccccc2)cc1 [Example 38, 4-(3-phenylsulfonylamino-5-trifluoromethylpyridine-2-yloxymethyl)benzoic acid]  160 nM
4. O=C(O)c1ccc(NC(=O)c2cc(Br)ccc2NS(=O)(=O)c2ccc(Cl)cc2)cc1 [2(k), 4-[2-(4-chlorophenylsulfonylamino)-5-bromobenzoylamino]benzoic acid]  99 nM
5. CC(C)N(c1ccc(C(F)(F)F)cc1N(C)Cc1ccc(C(=O)O)cc1)S(=O)(=O)c1ccccc1 [Example 30, 4-[N-methyl-[2-(N-isopropyl-phenylsulfonylamino)-5-trifluoromethylphenyl]aminomethyl]benzoic acid]  73 nM
6. CC(C)N(c1ccc(Cl)cc1OCc1ccc(C(=O)O)o1)S(=O)(=O)c1ccccc1 [24(9), 5-[2-(N-isopropyl-phenylsulfonylamino)-5-chlorophenoxymethyl]furan-2-carboxylic acid]  18 nM
7. CC(C)N(c1ccc(C(F)(F)F)cc1OC[C@H]1CC[C@H](C(=O)O)CC1)S(=O)(=O)c1ccccc1 [18(38), trans-4-[2-(N-isopropyl-phenylsulfonylamino)-5-trifluoromethylphenoxymethyl]cyclohexanoic acid]  16 nM
8. CC(C)N(c1ccc(C(F)(F)F)cc1/C=C/c1ccc(C(=O)O)cc1)S(=O)(=O)c1ccccc1 [Example 48, 4-[2-[2-(N-isopropyl-phenylsulfonylamino)-5-trifluoromethylphenyl]-(E)-vinyl]benzoic acid]  10 nM
9. Cc1ccc(N(C(C)C)S(=O)(=O)CC2CCCC2)c(OCc2ccc(C(=O)O)cc2)c1 [20(20), 4-[2-(N-isopropyl-cyclopentylmethylsulfonylamino)-5-methylphenoxymethyl]benzoic acid]  9.9 nM
10. CC(C)N(c1ccc(Cl)cc1OCc1ccc(C(=O)O)cc1)S(=O)(=O)c1cccs1 [18(58), 4-[2-(N-isopropyl-2-thienylsulfonylamino)-5-chlorophenoxymethyl]benzoic acid]  6.2 nM
11. CC(C)N(c1ccc(C(F)(F)F)cc1OCc1ccc(OCC(=O)O)cc1)S(=O)(=O)c1ccccc1 [Example 24, 4-[2-(N-isopropyl-phenylsulfonylamino)-5-trifluoromethylphenoxymethyl]phenoxy acetic acid]  5.8 nM
12. CCCS(=O)(=O)N(Cc1ccccc1)c1ccc(C)cc1OCc1ccc(C(=O)O)cc1 [18(75), 4-[2-(N-benzyl-propylsulfonylamino)-5-methylphenoxymethyl]benzoic acid]  5.4 nM
13. O=C(O)c1ccc(COc2cc(C(F)(F)F)ccc2N(C2CCCC2)S(=O)(=O)c2ccccc2)cc1 [18(30), 4-[2-(N-cyclopentyl-phenylsulfonylamino)-5-trifluoromethylphenoxymethyl]benzoic acid]  1.6 nM
14. CC(C)N(c1ccc(C(F)(F)F)cc1OCc1ccc(C#CC(=O)O)cc1)S(=O)(=O)c1ccccc1 [Example 44, 4-[2-(N-isopropyl-phenylsulfonylamino)-5-trifluoromethylphenoxymethyl]phenylpropiolic acid]  1.3 nM
15. CC(C)CN(c1ccc(C(F)(F)F)cc1OCc1ccc(/C=C/C(=O)O)cc1)S(=O)(=O)c1ccco1 [18(94), 4-[2-(N-isobutyl-2-furanylsulfonylamino)-5-trifluoromethylphenoxymethyl]cinnamic acid]  0.4 nM
16. CCN(c1ccc(C(F)(F)F)cc1OCc1ccc(/C=C/C(=O)O)cc1)S(=O)(=O)c1ccccc1 [18(102), 4-[2-(N-ethyl-phenylsulfonylamino)-5-trifluoromethylphenoxymethyl]cinnamic acid]  0.2 nM
